Consider 2 molecules from US20230293464A1, “TREATMENT OF PANCREATIC DUCTAL ADENOCARCINOMA WITH MIRDAMETINIB” (SpringWorks Therapeutics Inc., priority 2022, published 2023).

One assay concerns PDAC cell lines. In words: Autophagic flux, mCherry-EGFP-LC3B autophagy reporter (flow cytometry, confocal imaging). The note with it: panel of PDAC cell lines, 24-hours treatment. The format is cell-based. On the procedure: Autophagic flux was determined using flow cytometry. […] Live cell imaging was performed using confocal microscopy. FIG. 1D indicates the threshold of fluorescent intensity was set to include puncta and exclude cytosolic green and background fluorescence. Green and red puncta were quantified from FIG. 1C and plotted.

The next assay deals with PDAC cells. Nature of the assay: Vacuole formation on apilimod treatment. The class given is cell-based. The note with it: FIG. 3A. An excerpt:
Cells were fixed and stained with EEA1 and LAMP1 antibodies and analyzed with confocal microscopy.

As to `O=C(NOC[C@H](O)CO)c1ccc(F)c(F)c1Nc1ccc(I)cc1F` (single isomer, unassigned) [mirdametinib], the autophagic flux entry with PDAC cell lines is on record as “substantially induced autophagic flux”.

Turning to `Cc1cccc(/C=N/Nc2cc(N3CCOCC3)nc(OCCc3ccccn3)n2)c1` [apilimod], the vacuole formation result in the assay with PDAC cells is recorded as “dose-dependent vacuole formation”.
